According to patent publication US8703805B2 (Exelixis Patent Company LLC, priority 2005, dated 2014):

System: LXRα and/or LXRβ
Experiment: LXR/LXRE co-transfection assay (luciferase reporter, CV-1 cells)
Assay type: cell-based, human
Details: IC50 or EC50 for LXR (LXRα and/or LXRβ, not distinguished), tested as described in Example 109, CV-1 cells
From the text: To measure the ability of compounds to activate or inhibit the transcriptional activity of LXR in a cell based assay, the co-transfection assay was used. It has been shown that LXR functions as a heterodimer with RXR. For the co-transfection assay; expression plasmids for LXR and RXR are introduced via transient transfection into mammalian cells along with a luciferase reporter plasmid that contains one copy of a DNA sequence that is bound by LXR-RXR heterodimers (LXRE; Willy, P. ad. 1995). Treatment of transfected cells with an LXR agonist increases the transcriptional activity of LXR, which is measured by an increase in luciferase activity.
CV-1 African Green Monkey Kidney Cells Co-transfection expression plasmids, comprising full-length LXRα (pCMX-h LXRα, LXRβ (pCMX-hLXRβ), or RXRα (pCMX-RXR), reporter plasmid (LXREx1-Tk-Luciferase), and control (pCMX-Galactosidase expression vector) (Willey et al. Genes & Development 91033-1045 (1995)). Transfection reagent such as FuGENE6 (Roche). 1× Cell lysis buffer (1% Triton X 100 (IT Baker X200-07), 10% Glycerol (JT Baker M778-07), 5 mM Ditriotreitol (Quantum Bioprobe DTT03; add fresh before lysing), 1 mM EGTA (Ethylene Glycol-bis(B-Amino ethyl ether)-N,N,N′,N′-Tetracetic Acid) (Sigma E-4378), 25 mM Tricine (ICN 807420) pH 7.8) 1× Luciferase assay buffer (pH at 7.8) (0.73 mM ATP, 22.3 mM Tricine, 0.11 mM EDTA, 33.3 mM DTT) 1× Luciferrin/CoA (11 mM Luciferin, 3.05 mM Coenzyme A, 10 mM HEPES) Preparation of Screening Reagents
CV-1 cells were prepared 24 hours prior to the experiment by plating them into T-175 flasks or 500 cm^2 dishes in order to achieve 70-80% confluency on the day of the transfection. The number of cells to be transfected was determined by the number of plates to be screened. each 384 well plate requires 1.92×10^6 cells or 5000 cells per well. DNA Transfection Reagent was prepared by mixing the required plasmid DNAs with a cationic lipid transfection reagent FuGENE6 (Roche) by following the instructions provided with the reagents. Optimal DNA amounts were determined empirically per cell line and size of vessel to be transfected. 10-12 mL of media was added to the DNA Transfection Reagent and this mixture was added to the cells after aspirating media from the T175 cm^2 flask. Cells were then incubated at least 5 hours at 37° C. to prepare screening cells.
Luciferase assay reagent was prepared by combining before use (per 10 mL): […], 0.54 mL of 1× Luciferrin/CoA; 0.54 mL of 0.2 M Magnesium sulfate
Assay plates were prepared by dispensing 5 μL of compound per well of a 384 well plate to achieve final compound concentration of 10 μM and no more than 1% DMSO. Media was removed from the screening cells, the cells trypsinized, harvested cells by centrifugation, counted, and plated at a density of approximately 5000 cells per well in the 384 well assay plate prepared above in a volume of about 45 μL. Assay plates containing both compounds and screening cells (50 μL in total volume) were incubated for 20 hours at 37° C.
After incubation with compounds, media was removed from the cells and lysis buffer (30 μL/well) added. After 30 minutes at ambient temperature, luciferase assay buffer (30 μL/well) was added and the assay plates read on a luminometer (PE Biosystems Northstar reader with on-board injectors, or equivalent). Plates were read immediately after addition of luciferase assay buffer.
The LXR/LXRE co-transfection assay can be used to establish the EC50/IC50 values for potency and percent activity or inhibition for efficacy. Efficacy defines the activity of a compound relative to a high control ((N-(3-((4-fluorophenyl)-(naphthalene-2-sulfonyl)amino)propyl)-2,2-dimethylpropionamide)) or a low control (DMSO/vehicle). The dose response curves are generated from an 8 point curve with concentrations differing by ½ LOG units. each point represents the average of 4 wells of data from a 384 well plate. […]

Row | SMILES | EC50 [nM]
1 | CC(C)(O)c1cc(-c2ccc(-c3cccc(S(N)(=O)=O)c3)cc2)n(-c2ccccc2Cl)n1 [Example 1300, 4′-[1-(2-chlorophenyl)-3-(1-hydroxy-1-methylethyl)-1H-pyrazol-5-yl]biphenyl-3-sulfonamide] | 1000 to 10000
2 | CC(CO)NC(=O)c1cc(-c2ccc(-c3cccc(S(C)(=O)=O)c3)s2)n(-c2ccccc2Cl)n1 (stereo not shown) [Example 1270, 1-(2-chlorophenyl)-N-(2-hydroxy-1-methylethyl)-5-{5-[3-(methylsulfonyl)phenyl]-2-thienyl}-1H-pyrazole-3-carboxamide] | 1000 to 10000
3 | CS(=O)(=O)c1cccc(-c2ccc(-c3cc(C4(C#N)CCCC4)nn3-c3ccccc3Cl)s2)c1 [Example 1191, 1-[1-(2-chlorophenyl)-5-{5-[3-(methylsulfonyl)phenyl]-2-thienyl}-1H-pyrazol-3-yl]cyclopentanecarbonitrile] | < 1000
4 | Cn1c(-c2cccc(S(C)(=O)=O)c2)ccc1-c1cc(C(C)(C)O)nn1-c1c(Cl)cccc1Cl [Example 1393, 2-(1-(2,6-dichlorophenyl)-5-(1-methyl-5-(3-(methylsulfonyl)phenyl)-1H-pyrrol-2-yl)-1H-pyrazole-3-yl)propan-2-ol] | 1000 to 10000
5 | CC(C)(O)c1cc(-c2ccc(-c3ccc(C=O)s3)cc2)n(-c2ccccc2Cl)n1 [Example 1289, 5-{4-[1-(2-chlorophenyl)-3-(1-hydroxy-1-methylethyl)-1H-pyrazol-5-yl]phenyl}thiophene-2-carbaldehyde] | 1000 to 10000
6 | CC(C)(O)c1cc(-c2ccc(-c3cccc(S(C)(=O)=O)c3)s2)n(-c2cccc(C(F)(F)F)c2F)n1 [Example 1333, 2-(1-[2-fluoro-3-(trifluoromethyl)phenyl]-5-{5-[3-(methylsulfonyl)phenyl]-2-thienyl}-1H-pyrazol-3-yl)propan-2-ol] | 1000 to 10000
7 | O=C(O)CNC(=O)c1ccc(-c2cc(C(F)(F)F)nn2-c2ccccc2Cl)cc1 [Example 1362, N-({4-[1-(2-chlorophenyl)-3-(trifluoromethyl)-1H-pyrazol-5-yl]phenyl}carbonyl)glycine] | 1000 to 10000
8 | CS(=O)(=O)c1cccc(-c2ccc(-c3cc(C(=O)NCCc4ccccn4)nn3-c3ccccc3Cl)s2)c1 [Example 1232, 1-(2-chlorophenyl)-5-{5-[3-(methylsulfonyl)phenyl]-2-thienyl}-N-(2-pyridin-2-ylethyl)-1H-pyrazole-3-carboxamide] | 1000 to 10000
9 | CS(=O)(=O)c1cccc(Oc2ccc(-c3cc(C(F)(F)F)nn3-c3ccccc3Cl)cc2)c1 [Example 68, 1-(2-chlorophenyl)-5-(4-{[3-(methylsulfonyl)phenyl]oxy}phenyl)-3-(trifluoromethyl)-1H-pyrazole] | < 1000
10 | COC(=O)c1cc(-c2ccc(-c3cccc(S(C)(=O)=O)c3)s2)n(-c2c(Cl)cccc2Cl)n1 [Example 1238, methyl 1-(2,6-dichlorophenyl)-5-{5-[3-(methylsulfonyl)phenyl]-2-thienyl}-1H-pyrazole-3-carboxylate] | < 1000
11 | CC(C)(O)c1nn(-c2ccccc2F)c(-c2ccc(-c3cccc(S(C)(=O)=O)c3)s2)c1Cl [Example 23] | < 1000
12 | CC(C)(O)c1cc(-c2ccc(-c3cccc(S(C)(=O)=O)c3)s2)n(-c2c(Cl)cc(Cl)cc2C(F)(F)F)n1 [Example 1341, 2-(1-[2,4-dichloro-6-(trifluoromethyl)phenyl]-5-{5-[3-(methylsulfonyl)phenyl]-2-thienyl}-1H-pyrazol-3-yl)propan-2-ol] | 1000 to 10000
13 | COC(=O)CN(C)C(=O)c1cc(-c2ccc(-c3cccc(S(C)(=O)=O)c3)s2)n(-c2ccccc2Cl)n1 [Example 589, methyl N-{[1-(2-chlorophenyl)-5-{5-[3-(methylsulfonyl)phenyl]-2-thienyl}-1H-pyrazol-3-yl]carbonyl}-N-methylglycinate] | < 1000

More lines, now with the values ahead:

Row | EC50 [nM] | SMILES
14 | < 1000 | CC(=O)c1cc(-c2ccc(-c3cccc(S(C)(=O)=O)c3)s2)n(-c2ccccc2)n1 [Example 1268, 1-(5-{5-[3-(methylsulfonyl)phenyl]-2-thienyl}-1-phenyl-1H-pyrazol-3-yl)ethanone]
15 | 1000 to 10000 | CC(C)(O)c1cc(-c2ccc(-c3cccc(C(F)(F)F)c3)cc2)n(-c2ccccc2Cl)n1 [Example 1287, 2-{1-(2-chlorophenyl)-5-[3′-(trifluoromethyl)biphenyl-4-yl]-1H-pyrazol-3-yl}propan-2-ol]
16 | < 1000 | CS(=O)(=O)c1cccc(-c2ccc(-c3cc(C(F)(F)F)nn3-c3c(Cl)cccc3Cl)s2)c1 [Example 1227, 1-(2,6-dichlorophenyl)-5-{5-[3-(methylsulfonyl)phenyl]-2-thienyl}-3-(trifluoromethyl)-1H-pyrazole]
17 | < 1000 | Cc1ccc(C)c(-n2nc(C(C)(C)O)cc2-c2ccc(-c3cccc(S(C)(=O)=O)c3)s2)c1 [Example 1314, 2-[1-(2,5-dimethylphenyl)-5-{5-[3-(methylsulfonyl)phenyl]-2-thienyl}-1H-pyrazol-3-yl]propan-2-ol]
18 | < 1000 | CC(C)(O)c1cccc(-c2ccc(-c3cc(C(F)(F)F)nn3-c3ccccc3Cl)s2)c1 [Example 1240, 2-(3-{5-[1-(2-chlorophenyl)-3-(trifluoromethyl)-1H-pyrazol-5-yl]-2-thienyl}phenyl)propan-2-ol]
19 | 1000 to 10000 | CC(C)(O)c1cc(-c2ccc(-c3cccc(S(C)(=O)=O)c3)s2)n(-c2cccc(F)c2)n1 [Example 1258, 2-[1-(3-fluorophenyl)-5-{5-[3-(methylsulfonyl)phenyl]-2-thienyl}-1H-pyrazol-3-yl]propan-2-ol]
20 | 1000 to 10000 | CC(C)(O)c1cc(-c2ccc(-c3cccc(S(C)(=O)=O)c3)s2)n(-c2cccc(C(F)(F)F)c2O)n1 [Example 1338, 2-[3-(1-hydroxy-1-methylethyl)-5-{5-[3-(methylsulfonyl)phenyl]-2-thienyl}-1H-pyrazol-1-yl]-6-(trifluoromethyl)phenol]
21 | 1000 to 10000 | CC(C)(O)c1cc(-c2ccccc2Cl)n(-c2ccc(-c3cccc(S(C)(=O)=O)c3)nc2)n1 [Example 1246, 2-[5-(2-chlorophenyl)-1-(6-[3-(methylsulfonyl)phenyl]pyridin-3-yl}-1H-pyrazol-3-yl]propan-2-ol]
22 | < 1000 | Cc1c(C(C)(C)O)nn(-c2ccccc2Cl)c1-c1ccc(-c2cccc(S(C)(=O)=O)c2)s1 [Example 1301, 2-[1-(2-chlorophenyl)-4-methyl-5-{5-[3-(methylsulfonyl)phenyl]-2-thienyl}-1H-pyrazol-3-yl]propan-2-ol]
23 | 1000 to 10000 | CC(C)(O)c1cc(-c2ccc(-c3cccc(S(C)(=O)=O)c3)s2)n(-c2cnccc2C(F)(F)F)n1 [Example 1351, 2-(5-{5-[3-(methylsulfonyl)phenyl]-2-thienyl}-1-[4-(trifluoromethyl)pyridin-3-yl]-1H-pyrazol-3-yl)propan-2-ol]
24 | < 1000 | CC(C)(O)c1nn(-c2ccccc2C(F)(F)F)c(-c2ccc(-c3cccc(S(C)(=O)=O)c3)s2)c1Br [Example 1349, 2-(4-bromo-5-{5-[3-(methylsulfonyl)phenyl]-2-thienyl}-1-[2-(trifluoromethyl)phenyl]-1H-pyrazol-3-yl)propan-2-ol]
25 | 1000 to 10000 | CC(C)(O)c1cc(-c2ccc(-c3cccc(S(C)(=O)=O)c3)cc2Cl)n(-c2cnccc2C(F)(F)F)n1 [Example 117, 2-(5-(3-chloro-3′-(methylsulfonyl)biphenyl-4-yl)-1-(4-(trifluoromethyl)pyridin-3-yl)-1H-pyrazol-3-yl)propan-2-ol]
